Test results published in patent US10800815B2, “Kv1.3 potassium channel antagonists” (cgtx-Peptide Development GmbH, priority 2014, dated 2020).

Tests used:
[1] = Solubility and stability in 0.9% NaCl solution; assay type: physicochemical
Protocol: This peptide solution is being folded by oxidation (formation of disulfide bonds). The folding method is based on bond formation in phosphate buffer at pH 8.3 in the presence of atmospheric oxygen. […] Thus, after the folding reaction the active peptide (retention time 12.77 min) was purified from the cgtx-544 mixture of folded and partially folded peptides by preparative HPLC. After this purification step the active peptide—referred to as cgtx-544(Sing)—usually has an estimated purity of more than 95%.

Kv1.3 [2] = molecular target: T1, Kv1.3 (Homo sapiens, UniProt P22001); test: Decay of cgtx-544(Sing) in human blood serum at 37° C., blocking activity on Kv1.3 (Example 9); assay type: in vitro ADME
T1 sequence (P22001 whole entry): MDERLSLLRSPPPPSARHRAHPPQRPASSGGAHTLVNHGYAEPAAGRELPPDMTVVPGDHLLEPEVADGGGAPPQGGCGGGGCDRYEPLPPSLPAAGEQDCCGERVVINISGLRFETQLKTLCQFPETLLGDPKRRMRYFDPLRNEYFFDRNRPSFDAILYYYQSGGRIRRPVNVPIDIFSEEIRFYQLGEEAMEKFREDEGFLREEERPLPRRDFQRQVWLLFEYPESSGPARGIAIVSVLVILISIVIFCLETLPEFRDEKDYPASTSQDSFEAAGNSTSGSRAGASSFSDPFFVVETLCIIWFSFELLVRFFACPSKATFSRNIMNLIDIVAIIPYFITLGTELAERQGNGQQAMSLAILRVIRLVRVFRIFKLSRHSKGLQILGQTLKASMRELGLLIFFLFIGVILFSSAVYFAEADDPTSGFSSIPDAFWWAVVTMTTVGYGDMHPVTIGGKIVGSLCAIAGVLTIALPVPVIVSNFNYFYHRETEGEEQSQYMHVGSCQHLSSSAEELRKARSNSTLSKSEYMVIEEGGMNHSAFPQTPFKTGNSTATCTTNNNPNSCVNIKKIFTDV
Protocol: FIG. 33 Decay of cgtx-544(Sing) in human serum at 37° C. A known amount of cgtx-544(Sing) was added to human blood serum from 3 blood donors and incubated at 37° C. for a period of 57 days. The blocking activity of the peptide was measured on Kv1.3 channels over this period. The peptide remains stable for 16 h, and it can still be detected after 45 days. At 57 days the blocking effect is no longer visible. Decay is depicted as the reduction of concentration of cgtx-544 (Sing) as determined by: C(t)=IC50 (t0)/IC50(t).C0. The decay is fitted by a simple decay curve: C (t)=C0.2(−t/t1/2), where C0 is the initial concentration of peptide in solution, t0 is the 0 min incubation at 37° C. point, and t1/2 is the half-life.
Further to the experiments described in Example 3, the stability of the cgtx-544 peptide was tested in blood serum samples under in vitro conditions. Thus, the stability of cgtx-544(Sing) in human blood serum was determined by the addition of a known quantity of cgtx-544(Sing) to human blood serum and a subsequent incubation at 37° C. The blocking activity of ctx-544(Sing) was measured on Kv1.3 channels over a period of 57 days. cgtx-544(Sing) is extremely stable in human blood serum. Its activity remains constant for at least 16 hours, and decays slowly until no more peptide blocking effect is detectable after 57 days.

Kv1.3 [3] = molecular target: T1, Kv1.3; test: Kv1.3 block with prolonged incubation times; assay type: cell-based; details: incubation about 20 min, after folding and purification
Kv1.3 [4] = molecular target: T1, Kv1.3; test: Patchliner electrophysiology of cgtx-544(Sing) on Kv1.3 in Baculovirus infected Sf21 cells (Example 8); assay type: cell-based
Protocol: (§1) Ion channels were expressed via Baculovirus (Kv1.1-, Kv1.3- and Kv1.5-constructs) infected Sf21 cells or stably transfected CHO cells (Kv1.2) as described in Examples 1, 2, and 4. Electrophysiological analysis was performed on the automated patch clamp device “Patchliner” (Nanion Technologies, Munich, Germany). The Patchliner is based on a planary patch clamp method borosilicate glass chip (NPC-16) instead of a glass pipettes. The Patchliner is able to record four cells at the same time. All channel recordings were made in the whole cell mode. Data recordings were performed with the PatchMaster software (HEKA Electronics, Lambrecht/Pfalz, Germany). Visualization of experimental results was realized with IGOR software (Wavemetrics, USA). Average data are presented as mean±standard error of the mean (SEM).
(§2) Test compounds were used as concentrated stock solutions (mostly 1.5 μg/μl). Stock solutions were diluted in buffer to the required final concentrations.
After chemical synthesis (see Example 7) the peptide was folded by oxidation with atmospheric oxygen and the correctly folded (biologically active) peptide fraction was purified by preparative HPLC. This purified cgtx-544 peptide was designated cgtx-544(Sing) for singular peak.

Kv1.1 = molecular target: T2, Kv1.1 (Homo sapiens, UniProt Q09470); test: Patchliner electrophysiology on Kv1.1 in Baculovirus infected Sf21 cells (Example 8); assay type: cell-based
T2 construct: expressed in transfected cells; host or cells: Sf21 insect cells, baculovirus infection
T2 sequence (Q09470 whole entry): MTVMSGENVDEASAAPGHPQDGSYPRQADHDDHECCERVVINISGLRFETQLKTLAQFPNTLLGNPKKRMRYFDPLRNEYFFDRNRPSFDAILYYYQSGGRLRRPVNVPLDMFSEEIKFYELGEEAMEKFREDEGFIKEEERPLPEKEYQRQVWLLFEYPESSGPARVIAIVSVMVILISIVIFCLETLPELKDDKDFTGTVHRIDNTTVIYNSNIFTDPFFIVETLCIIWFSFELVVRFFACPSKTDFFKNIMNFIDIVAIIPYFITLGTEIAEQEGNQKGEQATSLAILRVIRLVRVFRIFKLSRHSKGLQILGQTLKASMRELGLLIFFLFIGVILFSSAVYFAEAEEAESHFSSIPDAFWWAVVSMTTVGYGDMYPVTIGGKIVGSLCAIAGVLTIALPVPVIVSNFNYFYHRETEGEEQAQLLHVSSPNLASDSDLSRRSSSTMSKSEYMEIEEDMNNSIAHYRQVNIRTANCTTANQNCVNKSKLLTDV
Protocol: as §1, §2

in vivo = assay type: in vivo; details: rat
Protocol: FIG. 34 Decrease of cgtx-544(Sing) in the serum of treated rats after i.v. injection. The concentration of unbound circulating cgtx-544(Sing) was calculated on the basis of a standard curve. Standard error of the mean is depicted in the error bars (n=6).
Rats received i.v. injections of cgtx-544(Sing) (750 μg/kg BW). Blood was withdrawn at time points 0, 1, 10 and 60 minutes. Subsequently, serum was prepared from blood samples. The cgtx-544 content in these samples was analyzed electrophysiologically by measuring the blocking effect on Kv1.3 channels expressed in CHO cells. […] In order to study the amount of unbound cgtx-544(Sing) in the rat, the amount of cgtx-544(Sing) present in the circulating blood at the time points referred above was calculated through a calibration curve. This calibration curve was obtained by adding known quantities of cgtx-544(Sing) to blood serum and subsequent electrophysiological measurements on Kv1.3 channels. The block of Kv1.3 currents by these spiked samples was similar to that obtained with cgtx-544(Sing) in the absence of serum (data not shown).

Kv1.5 = molecular target: T3, Kv1.5 (Homo sapiens, UniProt P22460); test: Patchliner electrophysiology on Kv1.5 in Baculovirus infected Sf21 cells (Example 8); assay type: cell-based; details: 10 μM solution
T3 construct: expressed in transfected cells; host or cells: Sf21 insect cells, baculovirus infection
T3 sequence (P22460 whole entry): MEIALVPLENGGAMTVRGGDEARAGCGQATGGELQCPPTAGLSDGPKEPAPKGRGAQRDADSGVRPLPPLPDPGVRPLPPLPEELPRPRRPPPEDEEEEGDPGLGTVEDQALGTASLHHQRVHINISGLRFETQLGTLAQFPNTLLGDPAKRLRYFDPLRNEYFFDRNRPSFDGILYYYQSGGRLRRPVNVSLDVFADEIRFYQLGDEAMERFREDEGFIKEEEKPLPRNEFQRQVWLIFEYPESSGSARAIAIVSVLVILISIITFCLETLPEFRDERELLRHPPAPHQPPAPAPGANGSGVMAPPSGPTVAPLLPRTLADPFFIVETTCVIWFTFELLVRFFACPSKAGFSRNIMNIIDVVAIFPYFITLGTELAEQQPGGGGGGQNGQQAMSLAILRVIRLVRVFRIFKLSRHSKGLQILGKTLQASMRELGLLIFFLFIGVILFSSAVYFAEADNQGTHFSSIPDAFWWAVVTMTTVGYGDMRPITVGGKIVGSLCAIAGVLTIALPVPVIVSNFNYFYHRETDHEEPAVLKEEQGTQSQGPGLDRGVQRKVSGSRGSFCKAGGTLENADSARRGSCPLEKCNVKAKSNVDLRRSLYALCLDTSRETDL

Kv1.2 = molecular target: T4, Kv1.2 (Homo sapiens, UniProt P16389); test: Patchliner electrophysiology on Kv1.2 in stably transfected CHO cells (Example 8); assay type: cell-based
T4 construct: expressed in transfected cells; host or cells: CHO cells, stably transfected
T4 sequence (P16389 whole entry): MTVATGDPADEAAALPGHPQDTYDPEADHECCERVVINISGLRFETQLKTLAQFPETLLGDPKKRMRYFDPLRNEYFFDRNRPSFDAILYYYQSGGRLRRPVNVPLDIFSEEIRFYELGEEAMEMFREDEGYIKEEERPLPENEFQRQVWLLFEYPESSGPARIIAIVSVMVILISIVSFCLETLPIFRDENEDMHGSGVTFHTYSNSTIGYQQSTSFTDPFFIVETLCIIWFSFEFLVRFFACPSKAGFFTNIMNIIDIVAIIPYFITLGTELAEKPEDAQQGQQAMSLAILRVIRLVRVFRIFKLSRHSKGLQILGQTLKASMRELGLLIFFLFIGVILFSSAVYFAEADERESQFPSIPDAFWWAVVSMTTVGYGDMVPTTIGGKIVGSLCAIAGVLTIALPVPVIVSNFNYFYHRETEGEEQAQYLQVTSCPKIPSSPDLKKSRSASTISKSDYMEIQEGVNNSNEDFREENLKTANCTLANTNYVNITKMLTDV
Protocol: as §1, §2

[5] = system: white blood cells in peripheral blood; test: Haematology (WBC, neutrophil granulocytes, lymphocytes) in AIA rats; assay type: in vivo, rat
Protocol: For the blood withdrawal the animals were narcotized briefly, the tail was disinfected and the tail vein was punctured with a cannula, 50 μl of blood were withdrawn with a heparin coated pipette and mixed with 5 μl of a stabilising agent (CPD) and 1 μl heparin (1.5 U/μl diluted 1:4 in 0.9% NaCl).
White Blood Cells (WBC) were counted with a Coulter Counter in the automatic mode.
Blood samples were taken regularly for monitoring of hematological parameters. Haematological parameters were assessed in all animals weekly before induction, at day of induction and 10 days after induction (days −21, −14, −7, 0 and 10). […] Absolute counts of white blood cells (WBC), neutrophil granulocytes and lymphocytes were analyzed among others, the last two also stated in percentage of total WBC. EDTA whole blood of seven individuals from both vehicle and cgtx-544 peptide therapy group was measured with Sysmex XT-2000i.
For screening the state of health of all individuals, complete haemograms were used again. EDTA whole blood of seven individuals from both MTX high-dose and low-dose therapy groups were measured with Sysmex XT-2000i.V weekly before induction, at day of induction and 4 and 7 days after induction (day −21, −14, −7, 0, 4 and 7; MTX low-dose therapy group additionally on day −3, when i.v. application started).

[6] = system: antigen induced arthritis (AIA); test: Antigen induced arthritis (AIA) rat model, knee joint swelling; assay type: in vivo; details: for reduction of knee swelling relative to the vehicle control group: 24 h after arthritis induction; for difference of absolute increase of knee swelling (induced minus un-induced knee): one day after arthritis induction
[7] = high-dose 1 mg/kg 1× weekly s.c., day 7
[8] = high-dose 1 mg/kg 1× weekly s.c., day −7
[9] = high-dose 1 mg/kg 1× weekly s.c., seven days after induction
[10] = low-dose 100 μg/kg 1× daily i.v., day 7
[11] = high-dose 1 mg/kg 1× weekly s.c.
[12] = low-dose 100 μg/kg 1× daily i.v.

## CC[C@H](C)[C@H](NC(=O)[C@@H](N)[C@@H](C)O)C(=O)N[C@H](C(=O)N[C@@H](CC(N)=O)C(=O)N[C@H](C(=O)N[C@@H](CCCCN)C(=O)N[C@H]1CSSC[C@@H]2NC(=O)[C@H](CCCCN)NC(=O)CNC(=O)[C@H](Cc3ccc(O)cc3)NC(=O)[C@@H]3CCCN3C(=O)[C@@H]3CSSC[C@@H](C(=O)O)NC(=O)[C@H](CCCNC(=N)N)NC(=O)[C@H](CC(N)=O)NC(=O)[C@@H]4CSSC[C@H](NC(=O)[C@@H]5CCCN5C(=O)[C@@H]5CCCN5C(=O)[C@H](CC(C)C)NC(=O)[C@H](CSSC[C@H](NC(=O)[C@H](CCCCN)NC(=O)[C@H](CCCNC(=N)N)NC(=O)[C@H](CC(N)=O)NC(=O)[C@H](CCSC)NC2=O)C(=O)N[C@@H](CCCCN)C(=O)N4)NC(=O)[C@H](CCC(N)=O)NC(=O)[C@H](CCCCN)NC(=O)[C@@H]2CCCN2C(=O)[C@H](CO)NC(=O)[C@H]([C@@H](C)O)NC1=O)C(=O)N[C@@H](CCCCN)C(=O)N[C@@H](C)C(=O)N[C@@H](CCC(N)=O)C(=O)N[C@@H]([C@@H](C)O)C(=O)NCC(=O)N3)C(C)C)[C@@H](C)CC [cgtx-544(Sing)]
[1]; 0.9% NaCl solution
  solubility: highly soluble
[1]; 0.9% NaCl solution at RT and 4° C.
  stability in solution: up to several weeks
Kv1.3 [2]; human blood serum, 37° C.
  time after which the peptide can still be detected: 45 days
  time at which blocking effect is no longer visible: 57 days
Kv1.3 [2]; human serum at 37° C.
  period for which 50% activity was retained: 5 days
Kv1.3 [3]
  IC50: ~0.0009 µM
Kv1.3 [4]
  IC50: 0.0069 µM
Kv1.1
  IC50: ~6 µM
In vivo; in vivo, iv, 750 ug/kg, 750 μg/kg BW
  half-life: ~26 min
In vivo; 750 μg/kg BW i.v., 60 minutes
  blocking activity of serum sample relative to the 1 minute sample: 10%
In vivo; i.v., 750 μg/kg BW
  approximate concentration in the circulating blood: ~62 nM
Kv1.5
  reduction of Kv1.5 currents: did not induce a significant reduction
Kv1.2
  IC50: 2.5 µM
Kv1.2; 100 nM solution, stably transfected CHO cells
  effect on Kv1.2 currents: did not alter
Kv1.2; concentrations >1 μM
  effect on Kv1.2 currents: only slightly reduced currents

## CN(Cc1cnc2nc(N)nc(N)c2n1)c1ccc(C(=O)N[C@@H](CCC(=O)O)C(=O)O)cc1 [MTX, Methotrexate]
[5]; [7]
  WBC count: 14.68±2.15 ×10^3/μl
  absolute lymphocyte count: 11.38±1.15 ×10^3/μl
  lymphocyte percentage: 78.16±7.20 % of WBC
[5]; [8]
  WBC count: 20.79±5.96 ×10^3/μl
  absolute lymphocyte count: 11.68±2.8 ×10^3/μl
  absolute neutrophil granulocyte count: 7.54±3.19 ×10^3/μl
  lymphocyte percentage: 57.01±6.45 % of WBC
  relative neutrophils: 35.46±7.08 % of WBC
[5]; [9]
  absolute neutrophil granulocyte count: 1.94±1.1 ×10^3/μl
  relative neutrophils: 12.63±6.1 % of WBC
[5]; [10]
  WBC count: 6.63±1.37 ×10^3/μl
  absolute lymphocyte count: 6.14±1.11 ×10^3/μl
  absolute neutrophil granulocyte count: 0.33±0.36 ×10^3/μl
  decrease of WBC counts compared to the beginning of the experiment: ~50%
  lymphocyte percentage: 93.13±4.66 % of WBC
  relative neutrophils: 4.41±4.63 % of WBC
[5]; low-dose treated individuals, seven days after arthritis induction
  effect in the haemogram compared to the vehicle control group: reduction of WBC count, neutrophil granulocyte count and lymphocyte count
[6]; [11]
  relative difference of knee swelling (normalized): 0.39±0.16
  reduction of knee swelling relative to the vehicle control group: 15%
  difference of absolute increase of knee swelling (induced minus un-induced knee): 3.17±1.26 mm
[6]; [12]
  relative difference of knee swelling (normalized): 0.43±0.11
  reduction of knee swelling relative to the vehicle control group: 7%
  difference of absolute increase of knee swelling (induced minus un-induced knee): 3.45±0.87 mm
